According to patent publication US8506927B2, “Pegylated fluorobenzamide analogues, their synthesis and use in diagnostic imaging” (Washington University, priority 2011, dated 2013):

Experiments:
[1] = biological target: T1, σ1 receptor (Cavia porcellus, UniProt Q60492); assay: σ1 receptor binding assay, [3H](+)-pentazocine competition; details: guinea pig brain membrane homogenates, ~5 nM [3H](+)-pentazocine; mean ± SEM; read-out: σ1 binding affinity (Ki)
T1 construct: using guinea pig brain membrane homogenates (˜300 μg protein); from tissue; host or cells: guinea pig brain membrane homogenate
T1 sequence (Q60492 whole entry): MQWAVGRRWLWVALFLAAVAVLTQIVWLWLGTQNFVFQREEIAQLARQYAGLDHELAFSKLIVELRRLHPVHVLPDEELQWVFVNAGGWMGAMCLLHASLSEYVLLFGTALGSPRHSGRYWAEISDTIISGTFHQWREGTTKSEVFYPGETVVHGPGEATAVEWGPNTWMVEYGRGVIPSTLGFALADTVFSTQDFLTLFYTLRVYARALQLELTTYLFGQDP
Experimental: (§1) This example illustrates in vitro binding studies with the compounds of the present teachings. In this example, in vitro binding studies can be conducted in order to measure the affinity of the target compounds for σ1 and σ2 receptors.
(§2) In these assays, pegylated sigma ligands of the present teachings can be dissolved in N,N-dimethylformamide (DMF), DMSO or ethanol, and can then be diluted in 50 mM Tris-HCl buffer containing 150 mM NaCl and 100 mM EDTA at pH 7.4 prior to performing σ1 and σ2 receptor binding assays Procedures for isolating the membrane homogenates and performing the σ1 and σ2 receptor binding assays have been described in detail previously (Xu, J., et al., Eur. J. Pharmacol. […] (1-3): 8-17, 2005). Briefly, the σ1 receptor binding assays can be conducted in 96-well plates using guinea pig brain membrane homogenates (˜300 μg protein) and ˜5 nM [^3H](+)-pentazocine (34.9 Ci/mmol, Perkin Elmer, Boston, Mass.). The total incubation time can be 90 min at room temperature. Nonspecific binding can be determined from samples that contain 10 μM of cold haloperidol. After 90 min, the reaction can be terminated by the addition of 150 μL of ice-cold wash buffer (10 mM Tris-HCl, 150 mM NaCl, pH 7.4) using a 96 channel transfer pipette (Fisher Scientific, Pittsburgh, Pa.). The samples can be harvested and filtered rapidly through a 96-well fiber glass filter plate (Millipore, Billerica, Mass.) that has been presoaked with 100 μL of 50 mM Tris-HCl buffer at pH 8.0 for 1 h. Each filter can be washed 3 times with 200 μL of ice-cold wash buffer, and the filter can be counted in a Wallac 1450 MicroBeta liquid scintillation counter (Perkin Elmer, Boston, Mass.).
(§3) Data from the competitive inhibition experiments can be modeled using nonlinear regression analysis to determine the concentration that inhibits 50% of the specific binding of the radioligand (IC50 value). Competitive curves can be best fit to a one-site fit and give pseudo-Hill coefficients of 0.6-1.0. Ki values can be calculated using the method of Cheng and Prusoff (Biochem. Pharmacol. 22: 3099-3108, 1973) and can be presented as the mean±1 SEM. For these calculations, one can use a Kd value of 7.89 nM for [^3H](+)-pentazocine and guinea pig brain; for [^3H]DTG and rat liver, for example 30.73 nM.

[2] = biological target: T2, σ2 receptor (Rattus norvegicus, UniProt Q5U3Y7); assay: σ2 receptor binding assay, [3H]DTG competition in the presence of (+)-pentazocine; details: for Ki: rat liver membrane homogenates, ~5 nM [3H]DTG with 1 μM (+)-pentazocine, mean ± SEM, read-out: σ2 binding affinity (Ki); for Ratio (σ1/σ2): ratio of Ki σ1 to Ki σ2
T2 construct: using rat liver membrane homogenates (˜300 μg protein); from tissue; host or cells: rat liver membrane homogenate
T2 sequence (Q5U3Y7 1-176): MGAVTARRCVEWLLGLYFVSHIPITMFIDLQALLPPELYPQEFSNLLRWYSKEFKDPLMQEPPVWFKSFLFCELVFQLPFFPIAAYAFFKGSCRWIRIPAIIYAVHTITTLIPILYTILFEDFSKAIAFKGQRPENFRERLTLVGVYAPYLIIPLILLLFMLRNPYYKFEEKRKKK
Experimental: as §1, §2
σ2 receptor binding assays can be conducted using rat liver membrane homogenates (˜300 μg protein) and ˜5 nM [^3H]DTG (58.1 Ci/mmol, Perkin Elmer, Boston, Mass.) in the presence of 1 μM (+)-pentazocine. The incubation time can be […] at room temperature. Nonspecific binding can be determined from samples that contain 10 μM of cold haloperidol. All other procedures can be identical to those described for the σ1 receptor binding assay above.
as §3

[3] = test system: EMT-6 mouse mammary adenocarcinoma tumor; assay: Biodistribution / tumor uptake of 18F-labeled compounds in tumor-bearing mice; type: in vivo; details: EMT-6 tumor-bearing female Balb/c mice, versus non-pegylated analog (m=1; X1=H; X2=Br), FIG. 2
Experimental: This example illustrates in vivo evaluation of compounds of the present teachings. All animal experiments can be conducted in compliance with the Guidelines for the Care and Use of Research Animals established by Washington University's Animal Studies Committee. EMT-6 mouse mammary adenocarcinoma cells (5×10^5 cells in 100 uL of phosphate-buffered saline) can be implanted subcutaneously in the scapular region of female Balb/c mice (˜2-month old and 17-22 g; Charles River Laboratories). The biodistribution studies can be initiated 7-10 days after implantation when the tumor size can be ˜0.2 cm^3 (˜200 mg).
For biodistribution studies, 10-120 μCi of an [^18F]-radiolabeled pegylated compound of the present teachings in 100-150 uL of saline can be injected via the tail vein into EMT-6 tumor-bearing female Balb/c mice. Groups of at least 4 mice can be used for each time point. At 5, 30, 60, and 120 min after injection, the mice can be euthanized, and samples of blood, lung, liver, kidney, muscle, fat, heart, brain, bone and tumor can be removed, weighed and counted in a Beckman Gamma 8000 well counter. After counting, the percentage of the injected dose per gram of tissue (% ID/g) can be calculated. The tumor/organ ratios can be calculated by dividing the % ID/g of the tumor by the % ID/g of each organ.
This example illustrates tumor uptake of ^18F-labeled pegylated compounds 6c, 6d and 6g versus a nonpegylated analog (m=1; X1=H; X2=Br).
In these experiments, various ^18F-labeled pegylated compounds of the present teachings as well as a non-pegylated analog were administered to tumor-bearing mice as described in Example 22. The pegylated compounds tested,
[drawing 27] were 6c (m=2; X1=H; X2=Br), 6d (m=3; X1=H; X2=Br) and 6g (m=2; X1=OCH3; X2=Br). A non-pegylated analog (m=1; X1=H; X2=Br) was also tested.

[4] = biological target: σ1 receptors (Homo sapiens, UniProt Q99720); details: stated in words with literature references; cited from earlier work
σ1 receptors, sequence (Q99720 whole entry): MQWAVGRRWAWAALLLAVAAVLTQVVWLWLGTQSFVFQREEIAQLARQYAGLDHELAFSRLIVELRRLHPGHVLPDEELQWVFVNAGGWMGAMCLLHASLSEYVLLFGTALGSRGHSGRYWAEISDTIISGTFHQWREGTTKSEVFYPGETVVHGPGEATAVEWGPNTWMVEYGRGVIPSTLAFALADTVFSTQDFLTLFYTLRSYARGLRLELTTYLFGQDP

[5] = biological target: σ2 receptors (Homo sapiens, UniProt Q5BJF2); details: stated in words with literature references; cited from earlier work
σ2 receptors, sequence (Q5BJF2 whole entry): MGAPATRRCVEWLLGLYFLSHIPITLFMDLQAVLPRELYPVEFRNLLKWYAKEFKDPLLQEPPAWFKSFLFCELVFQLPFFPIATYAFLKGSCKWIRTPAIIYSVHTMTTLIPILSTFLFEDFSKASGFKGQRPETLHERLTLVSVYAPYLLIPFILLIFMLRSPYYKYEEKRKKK

| Structure (SMILES) | Ki [1] [nM] | Ki [2] [nM] | Ratio (σ1/σ2) [2] | rate of washout [3] | tumor uptake [3] | affinity for σ1 receptors [4] | affinity for σ2 receptors [5] |
| --- | --- | --- | --- | --- | --- | --- | --- |
| COc1cc2c(cc1OC)CN(CCCCNC(=O)c1cc(C)ccc1OCCOCCF)CC2 [6a, N-(4-(6,7-dimethoxy-3,4-dihydroisoquinolin-2(1H)-yl)butyl)-2-(2-(2-fluoroethoxy)ethoxy)-5-methylbenzamide] | 277 ± 38 | 6.75 ± 0.9 | 41 |  |  |  |  |
| COc1cc2c(cc1OC)CN(CCCCNC(=O)c1cc(Br)cc(OC)c1OCCOCCF)CC2 [6g, 5-bromo-N-(4-(6,7-dimethoxy-3,4-dihydroisoquinolin-2(1H)-yl)butyl)-2-(2-(2-fluoroethoxy)ethoxy)-3-methoxybenzamide] | 669 ± 101 | 4.67 ± 0.6 | 143 | slower rate of washout | higher tumor uptake compared to the non-pegylated analog |  |  |
| COc1cc2c(cc1OC)CN(CCCCNC(=O)c1cc(Br)cc(OC)c1OCCOCCOCCF)CC2 [6h] | 9100 | 33 | 276 |  |  |  |  |
| COc1cc2c(cc1OC)CN(CCCCNC(=O)c1cc(Br)ccc1OCCOCCOCCF)CC2 [6d, 5-Bromo-N-(4-(6,7-dimethoxy-3,4-dihydroisoquinolin-2(1H)-yl)butyl)-2-(2-(2-(2-fluoroethoxy)ethoxy)ethoxy)benzamide] | 1010 | 9.8 ± 0.4 | 103 | slower rate of washout | higher tumor uptake compared to the non-pegylated analog |  |  |
| COc1cc2c(cc1OC)CN(CCCCNC(=O)c1cc(I)ccc1OCCOCCF)CC2 [6e] | 451 ± 56 | 6.29 ± 0.6 | 72 |  |  |  |  |
| O=C(Cc1cccc(Br)c1)NC1CCN(Cc2ccc(F)cc2)CC1 [Yun-143, N-(4-fluorobenzyl)piperidinyl-4-(3-bromophenyl)acetamide] |  |  |  |  |  | high affinity | high affinity |
| COc1cc2c(cc1OC)CN(CCCCNC(=O)c1cc(Br)ccc1OCCOCCF)CC2 [6c, 5-Bromo-N-(4-(6,7-dimethoxy-3,4-dihydroisoquinolin-2(1H)-yl)butyl)-2-(2-(2-fluoroethoxy)ethoxy)benzamide] | 1040 | 1.38 ± 0.2 | 755 | slower rate of washout | higher tumor uptake compared to the non-pegylated analog |  |  |
| COc1cc2c(cc1OC)CN(CCCCNC(=O)c1cc(C)ccc1OCCOCCOCCF)CC2 [6b, N-(4-(6,7-dimethoxy-3,4-dihydroisoquinolin-2(1H)-yl)butyl)-2-(2-(2-(2-fluoroethoxy)ethoxy)ethoxy)-5-methylbenzamide] | 1920 | 10.1 ± 0.4 | 190 |  |  |  |  |
| COc1cc2c(cc1OC)CN(CCCCNC(=O)c1cc(I)ccc1OCCOCCOCCF)CC2 [6f, N-(4-(6,7-dimethoxy-3,4-dihydroisoquinolin-2(1H)-yl)butyl)-2-(2-(2-(2-fluoroethoxy)ethoxy)ethoxy)-5-iodobenzamide] | 1280 | 7.47 ± 1.2 | 171 |  |  |  |  |
